For data set [1] the following is noted: manufacturers' literature; cited from earlier work.
The conditions of data set [2]: cited from earlier work.
The nature of data set [3]: PEL. The settings on record: Honeywell internal PEL. From the text: Table 1 and Table 2, below, list the properties of 1233zd(E) and 1234ze(E) compared to other commonly used blowing agents.
Table 3A and Table 3B list the properties of 1233zd(E) compared to some non-flammable blowing agents, such as 245fa and 141b, and various flammable blowing agents, such as methyl formate and hydrocarbons. […] Note that the global warming potential (GWP) of 1233zd(E) of less than 5 is the lowest among all blowing agents compared. Moreover, the GWP of 1233zd(E) is more than two orders of magnitude lower than that of the currently utilized 245fa, and is more than one order of magnitude lower than the present limitations in the EU F-Gas Regulation.

The structures appear in SMILES notation. Structures can show the parent of a compound that is named as a salt. Where two headings read alike, the source gives them in different places.

Turning to `CC(F)(Cl)Cl` [141b, 1,1-dichloro-1-fluoroethane], the PEL in data set [1] was 500 ppm. Further, the “LFL/UFL (Vol % in Air)” value in data set [2] is 7.6-17.7 Vol %.

On to `CC(F)(F)Cl` [142b, 1-chloro 1,1-difluoroethane], for which the PEL in data set [1] is 1000 ppm. Moreover, the “LFL/UFL (Vol % in Air)” value in data set [2] was 8.0-15.4 Vol %.

For the molecule `FC(F)CC(F)(F)F` [245fa, 1,1,1,3,3-pentafluoropropane], the PEL in data set [1] is 300 ppm. In addition, the “LFL/UFL (Vol % in Air)” value in data set [2] is on record as “None”.

Turning to `CC(F)(F)CC(F)(F)F` [365mfc, 1,1,1,3,3-pentafluorobutane], the PEL in data set [1] is 1000 ppm. Also, the “LFL/UFL (Vol % in Air)” value in data set [2] is 3.6-13.3 Vol %.

On to `FC(F)(F)/C=C/Cl` [1233zd(E), trans-1-chloro-3,3,3-trifluoropropene], for which the PEL was 300 ppm in data set [1] and 300^5 in data set [3]. For the same molecule, the “LFL/UFL (Vol % in Air)” value in data set [2] is reported as “None”.

Consider `F/C=C/C(F)(F)F` [1234ze(E), trans-1,3,3,3-tetrafluoropropene], for which, in data set [1], the PEL was 1000 ppm. Moreover, the “LFL/UFL (Vol % in Air)” value in data set [2] is “None”.

`C1CCCC1` [C-C5, cyclopentane]: in data set [2], the “LFL/UFL (Vol % in Air)” value was 1.5-8.7 Vol %.

As for `COC=O` [Methyl Formate, methyl formate], the PEL in data set [1] was 600 ppm. The “LFL/UFL (Vol % in Air)” value in data set [2] is listed as 5.0-23.0 Vol %.

As for `FC(Cl)Cl` [compound 22, dichlorofluoromethane], the PEL in data set [1] was 1000 ppm. The “LFL/UFL (Vol % in Air)” value in data set [2] was “None”.

As to `CCC(C)C` [isopentane], the PEL in data set [1] was 600 ppm. Moreover, the “LFL/UFL (Vol % in Air)” value in data set [2] is 1.4-8.3 Vol %.

Take `CCCCC` [normal pentane, n-pentane]: the PEL in data set [1] is 600 ppm. In data set [2], the “LFL/UFL (Vol % in Air)” value was 1.4-8.3 Vol %.

The values above are taken from patent US20180312651A1, “FOAMS AND ARTICLES MADE FROM FOAMS CONTAINING HCFO OR HFO BLOWING AGENTS” (HONEYWELL INTERNATIONAL INC., priority 2011, published 2018).
